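Grown in 96-well plates, cells were treated for 48 hours with each compound at five concentrations. Insufficient inhibition: endpoint recorded as highest concentration tested. GI50: concentration for 50% inhibition of growth.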 Active and inactive are the calls of the source. No stated cut-off is given here; in the data, active = GI50 up to about 1.1 µM and inactive = higher.
Columns and labels:
Experiment in all cases: NCI anticancer screen, dose series, 48 h
[1] = system: PC-3
[2] = system: SW-620
[3] = system: NCI/ADR-RES
[4] = system: RXF 393
[5] = system: MDA-MB-231
[6] = system: SNB-19
[7] = system: MOLT-4
[8] = system: TK-10
[9] = system: SN12C
[10] = system: SNB-75
[11] = system: HOP-62
[12] = system: K562
[13] = system: DU-145
[14] = system: MDA-MB-435
[15] = system: KM12
[16] = system: CCRF-CEM
[17] = system: SR
[18] = system: SF-268
[19] = system: CAKI-1
[20] = system: UACC-62

Structure (SMILES) | GI50 [1] | GI50 [2] | GI50 [3] | GI50 [4] | GI50 [5] | GI50 [6] | GI50 [7] | GI50 [8] | GI50 [9] | GI50 [10] | GI50 [11] | GI50 [12] | GI50 [13] | GI50 [14] | GI50 [15] | GI50 [16] | GI50 [17] | GI50 [18] | GI50 [19] | GI50 [20]
Clc1ccc(/C=N/c2ccc3c(c2)Cc2ccccc2-3)c(Cl)c1 | > 100 µM (inactive) | > 100 µM (inactive) | > 100 µM (inactive) | > 100 µM (inactive) | > 100 µM (inactive) | > 100 µM (inactive) | > 100 µM (inactive) | > 100 µM (inactive) | > 100 µM (inactive) | > 100 µM (inactive) | > 100 µM (inactive) | 58.3 µM (inactive) | > 100 µM (inactive) | 50.7 µM (inactive) | > 100 µM (inactive) | 88.5 µM (inactive) | 45.9 µM (inactive) | > 100 µM (inactive) | > 100 µM (inactive) | > 100 µM (inactive)
CC(C)(C)OC(=O)NC(Cc1ccc(OC(C)(C)C)cc1)C(=O)N[C@H]1CCC[C@H]1C(=O)NC(Cc1ccccc1)C(=O)N1CCCC1C(N)=O (stereo not given in full) | > 100 µM (inactive) | > 100 µM (inactive) | > 100 µM (inactive) | > 100 µM (inactive) | > 100 µM (inactive) | > 100 µM (inactive) | > 100 µM (inactive) | > 100 µM (inactive) | > 100 µM (inactive) | > 100 µM (inactive) | > 100 µM (inactive) | > 100 µM (inactive) | > 100 µM (inactive) | > 100 µM (inactive) | > 100 µM (inactive) | > 100 µM (inactive) | > 100 µM (inactive) | > 100 µM (inactive) | > 100 µM (inactive) | > 100 µM (inactive)
COc1cc2c(/C=C3/C(=O)Nc4ccccc43)c(Cl)n(Cc3ccc(Cl)cc3)c2cc1C | 0.608 µM (active) | 0.472 µM (active) | 0.225 µM (active) | 0.339 µM (active) | 0.216 µM (active) | 0.43 µM (active) | 0.264 µM (active) | 0.565 µM (active) | 0.226 µM (active) | 0.237 µM (active) | 0.237 µM (active) | 0.365 µM (active) | 0.306 µM (active) | 0.193 µM (active) | 0.33 µM (active) | 0.29 µM (active) | 0.209 µM (active) | 0.675 µM (active) | 0.263 µM (active) | 0.28 µM (active)
CCOc1c(OC)cc(-c2nc3n(n2)C(=O)C(CC)S3)cc1OC (stereo not given) | > 10 µM (inactive) | > 10 µM (inactive) | > 10 µM (inactive) | > 10 µM (inactive) | > 10 µM (inactive) | > 10 µM (inactive) | > 10 µM (inactive) | > 10 µM (inactive) | > 10 µM (inactive) | > 10 µM (inactive) | > 10 µM (inactive) | > 10 µM (inactive) | > 10 µM (inactive) | > 10 µM (inactive) | > 10 µM (inactive) | > 10 µM (inactive) | > 10 µM (inactive) | > 10 µM (inactive) | > 10 µM (inactive) | > 10 µM (inactive)
COc1ccc2c[n+](C)c3c4cc(OC)c(OC)cc4ccc3c2c1 | 0.849 µM (active) | 2.23 µM (inactive) | > 100 µM (inactive) | 15.6 µM (inactive) | 0.944 µM (active) | 2.52 µM (inactive) | 3.85 µM (inactive) | 17.8 µM (inactive) | 2.02 µM (inactive) | 2.47 µM (inactive) | 8.02 µM (inactive) | 2.43 µM (inactive) | 10.3 µM (inactive) | 13.7 µM (inactive) | 1.43 µM (inactive) | 3.37 µM (inactive) | 2.87 µM (inactive) | 1.79 µM (inactive) | 42.3 µM (inactive) | 18.5 µM (inactive)
COc1ccc(C(=O)/C=C/c2ccc(O)c(O)c2)c(OC)c1 | 4.8 µM (inactive) | 1.22 µM (inactive) | 2.75 µM (inactive) | 8.18 µM (inactive) | 2.71 µM (inactive) | 2.96 µM (inactive) | 2.79 µM (inactive) | 6.14 µM (inactive) | 1.22 µM (inactive) | 1.91 µM (inactive) | 4.32 µM (inactive) | 0.442 µM (active) | 3.16 µM (inactive) | 0.47 µM (active) | 1.01 µM (active) | 0.508 µM (active) | 0.337 µM (active) | 1.4 µM (inactive) | 6.27 µM (inactive) | 2.98 µM (inactive)
CCc1nc(N)nc(N)c1-c1ccc(NCCc2ccccc2)c([N+](=O)[O-])c1 | 0.272 µM (active) | 0.163 µM (active) | 0.716 µM (active) | 3.55 µM (inactive) | 8.65 µM (inactive) | 2.21 µM (inactive) | 0.491 µM (active) | 13.3 µM (inactive) | 1.34 µM (inactive) | 3.56 µM (inactive) | 1.64 µM (inactive) | 0.0325 µM (active) | 1.14 µM (inactive) | 0.389 µM (active) | 1.33 µM (inactive) | 0.297 µM (active) | 0.215 µM (active) | 0.527 µM (active) | 0.39 µM (active) | 0.162 µM (active)
CCOC(=O)C(NC(=O)CC)(N1CCN(c2cc3c(cc2F)c(=O)c(C(=O)O)cn3C2CC2)CC1)C(F)(F)F (stereo not given) | > 100 µM (inactive) | > 100 µM (inactive) | > 100 µM (inactive) | > 100 µM (inactive) | 52.2 µM (inactive) | > 100 µM (inactive) | > 100 µM (inactive) | > 100 µM (inactive) | > 100 µM (inactive) | > 100 µM (inactive) | > 100 µM (inactive) | > 100 µM (inactive) | > 100 µM (inactive) | > 100 µM (inactive) | > 100 µM (inactive) | 91.8 µM (inactive) | > 100 µM (inactive) | > 100 µM (inactive) | > 100 µM (inactive) | > 100 µM (inactive)
CC1CC[C@@]2(OC1)OC1C[C@H]3[C@@H]4CC[C@H]5CC(OC6OC(CO)C(O)C(OC7OC(CO)C(OC8OC(CO)C(O)C(OC9OC(CO)C(O)C(O)C9O)C8OC8OC(CO)C(O)C(O)C8O)C(O)C7O)C6O)[C@H](O)CC5(C)[C@H]4CCC3(C)C1[C@@H]2C (stereo not given in full) | 1.29 µM (inactive) | 2.22 µM (inactive) | 4.72 µM (inactive) | 1.34 µM (inactive) | 1.31 µM (inactive) | 2.2 µM (inactive) | 5.18 µM (inactive) | 5.57 µM (inactive) | 2.49 µM (inactive) | 3.98 µM (inactive) | 2.28 µM (inactive) | 3.37 µM (inactive) | 5.47 µM (inactive) | 6.59 µM (inactive) | 4.79 µM (inactive) | 2.08 µM (inactive) | 1.11 µM (active) | 5 µM (inactive) | 4.11 µM (inactive) | 8.69 µM (inactive)
CCOc1cc(NC(C)=O)ccc1C(=O)NN1C(=O)CSC1c1ccc(O)c(OC)c1 (stereo not given) | 44 µM (inactive) | 87.7 µM (inactive) | 30.8 µM (inactive) | 34.7 µM (inactive) | 53.8 µM (inactive) | 89.1 µM (inactive) | 23.8 µM (inactive) | 6.67 µM (inactive) | > 100 µM (inactive) | 85.3 µM (inactive) | > 100 µM (inactive) | 40.7 µM (inactive) | > 100 µM (inactive) | 46.2 µM (inactive) | 42.9 µM (inactive) | 40.8 µM (inactive) | 50.9 µM (inactive) | 71.4 µM (inactive) | 44.4 µM (inactive) | 50.4 µM (inactive)
Clc1nc2c(C#Cc3ccccc3)ncnc2n1C1CCCCO1 (stereo not given) | 12.2 µM (inactive) | 16.3 µM (inactive) | 25.8 µM (inactive) | 10.4 µM (inactive) | 16.6 µM (inactive) | 19.6 µM (inactive) | 17.7 µM (inactive) | 20.5 µM (inactive) | 10.4 µM (inactive) | 18.1 µM (inactive) | 31.2 µM (inactive) | 30.3 µM (inactive) | 19 µM (inactive) | 7 µM (inactive) | 14 µM (inactive) | 5.15 µM (inactive) | 4.37 µM (inactive) | 14 µM (inactive) | 10 µM (inactive) | 13.4 µM (inactive)
COC(=O)c1cc(C#N)[nH]c1-c1ccc(Br)s1 | 1.75 µM (inactive) | 15.9 µM (inactive) | 10.3 µM (inactive) | 4.3 µM (inactive) | 14.5 µM (inactive) | 7.74 µM (inactive) | 12.3 µM (inactive) | 13 µM (inactive) | 13.1 µM (inactive) | 8.85 µM (inactive) | 8.39 µM (inactive) | > 30.8 µM (inactive) | 10.8 µM (inactive) | 13.5 µM (inactive) | 16.7 µM (inactive) | 21.1 µM (inactive) | 16.8 µM (inactive) | 10.1 µM (inactive) | 19.2 µM (inactive) | 11.6 µM (inactive)
O=C1/C(=C2\Sc3c(ccc(Cl)c3Cl)C2=O)Sc2c1ccc(Cl)c2Cl | > 100 µM (inactive) | > 100 µM (inactive) | > 100 µM (inactive) | 89.1 µM (inactive) | > 100 µM (inactive) | > 100 µM (inactive) | > 100 µM (inactive) | > 100 µM (inactive) | > 100 µM (inactive) | 20.3 µM (inactive) | 12.6 µM (inactive) | > 100 µM (inactive) | > 100 µM (inactive) | > 100 µM (inactive) | > 100 µM (inactive) | > 100 µM (inactive) | > 100 µM (inactive) | > 100 µM (inactive) | > 100 µM (inactive) | > 100 µM (inactive)
